# Measurements taken from patent publication US9550782B2, “Compounds and methods for treating diabetes” (Medivation Technologies, Inc., priority 2011, dated 2017).
# Where “and” joins values, the source holds several entries; their conditions need not be identical. Equal entries are not always repeated.
# Biological target: T1, rat adrenergic α1B receptor (Rattus norvegicus, UniProt P15823)
# T1 construct: rat adrenergic α1B receptor obtained from Wistar Rat liver; from tissue; host or cells: Wistar rat liver
# T1 sequence (P15823 1-515): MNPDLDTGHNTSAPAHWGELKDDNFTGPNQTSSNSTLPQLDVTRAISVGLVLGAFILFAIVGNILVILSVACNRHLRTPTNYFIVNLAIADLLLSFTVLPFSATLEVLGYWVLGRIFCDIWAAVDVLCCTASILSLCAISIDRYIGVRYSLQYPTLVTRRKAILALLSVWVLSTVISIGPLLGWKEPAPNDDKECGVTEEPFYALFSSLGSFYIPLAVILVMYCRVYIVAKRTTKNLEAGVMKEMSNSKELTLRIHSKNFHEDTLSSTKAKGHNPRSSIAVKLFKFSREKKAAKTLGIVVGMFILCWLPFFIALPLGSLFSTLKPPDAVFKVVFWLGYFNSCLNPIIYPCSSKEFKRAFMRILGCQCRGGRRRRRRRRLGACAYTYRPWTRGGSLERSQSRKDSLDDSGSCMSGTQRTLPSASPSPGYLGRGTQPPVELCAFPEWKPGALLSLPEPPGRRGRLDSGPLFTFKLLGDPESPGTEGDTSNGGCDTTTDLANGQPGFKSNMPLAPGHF
# Experiment: Radioligand binding, adrenergic α1B ([3H]Prazosin)
# Design: species or system Wistar Rat
# Settings: compound at 0.03 μM, repeat datapoints each shown
# Procedure, shortened: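 Rat α1B receptor from Wistar rat liver was incubated with 0.25 nM [3H]prazosin for 60 min at 25 °C in 50 mM Tris-HCl, pH 7.4, 0.5 mM EDTA. Non-specific binding was defined with 10 μM phentolamine. Bound radioligand was measured by filtration and counting, reported as percent inhibition of specific binding.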
row,"Percentage inhibition of ligand binding, Adrenergic α1B (0.03 μM) [%]",SMILES
1,16,"CN1CCc2c(c3cc(Cl)ccc3n2CC(C)(O)c2cccnc2)C1 (single isomer, unassigned) [31a]"

# Same assay, conditions: compound at 0.1 μM, repeat datapoints each shown, 0.1 µM
row,"Percentage inhibition of ligand binding, Adrenergic α1B (0.1 μM)",SMILES
1,2%,"CN1CCc2c(c3ccc(C(F)(F)F)cc3n2CC(O)c2cccnc2)C1 (single isomer, unassigned) [40a]"
2,−2%,"CN1CCc2c(c3ccc(C(F)(F)F)cc3n2CC(O)c2cccnc2)C1 (single isomer, unassigned) [40b]"
3,43%,"CN1CCc2c(n(CC(O)c3ccncc3)c3ccc(Cl)cc23)C1 (single isomer, unassigned) [41a]"

# Continued, compound first:
row,SMILES,"Percentage inhibition of ligand binding, Adrenergic α1B (0.1 μM)"
1,"CN1CCc2c(c3cc(Cl)ccc3n2CC(C)(O)c2cccnc2)C1 (single isomer, unassigned) [31a]",25% and 28%
2,"CCC1c2c(c3cc(C)ccc3n2CC(O)c2ccncc2)C2CCN1C2 (single isomer, unassigned) [36a]",14%
3,"CCC1c2c(c3cc(C)ccc3n2CC(O)c2ccncc2)C2CCN1C2 (single isomer, unassigned) [36b]",11%
4,"OC(Cn1c2c(c3cccnc31)CN1CCCC1C2)c1ccncc1 (single isomer, unassigned) [37a]",−5%
5,"OC(Cn1c2c(c3cccnc31)CN1CCCC1C2)c1ccncc1 (single isomer, unassigned) [37b]",−10%
6,"OC(Cn1c2c(c3cccnc31)CN1CCCC1C2)c1ccncc1 (single isomer, unassigned) [37c]",2%
7,"OC(Cn1c2c(c3cccnc31)CN1CCCC1C2)c1ccncc1 (single isomer, unassigned) [37d]",2%
8,"Cc1ccc2c(c1)c1c(n2CC(O)c2ccncc2)C(C)N2CCC1C2 (single isomer, unassigned) [38a]",11%
9,"Cc1ccc2c(c1)c1c(n2CC(O)c2ccncc2)C(C)N2CCC1C2 (single isomer, unassigned) [38b]",20%

# Biological target: T2, human recombinant adrenergic α2B receptor (Homo sapiens, UniProt P18089)
# T2 construct: expressed in transfected cells; host or cells: CHO-K1
# T2 sequence (P18089 1-450): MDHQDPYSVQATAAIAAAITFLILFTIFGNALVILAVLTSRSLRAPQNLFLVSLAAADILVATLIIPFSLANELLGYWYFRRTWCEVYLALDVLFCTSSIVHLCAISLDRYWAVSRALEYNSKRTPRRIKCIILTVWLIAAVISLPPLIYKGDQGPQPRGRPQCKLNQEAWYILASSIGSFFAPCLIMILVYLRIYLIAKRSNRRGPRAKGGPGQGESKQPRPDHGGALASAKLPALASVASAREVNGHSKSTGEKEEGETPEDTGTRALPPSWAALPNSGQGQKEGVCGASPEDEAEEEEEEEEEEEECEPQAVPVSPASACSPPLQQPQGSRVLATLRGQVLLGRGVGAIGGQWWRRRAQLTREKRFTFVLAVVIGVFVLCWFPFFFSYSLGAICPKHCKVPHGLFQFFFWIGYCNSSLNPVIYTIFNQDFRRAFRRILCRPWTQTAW
# Experiment: Radioligand binding, adrenergic α2B ([3H]Rauwolscine)
# Settings: compound at 0.03 μM, repeat datapoints each shown, 0.03 µM
# Procedure, shortened: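 Membranes from CHO-K1 cells expressing human recombinant α2B, in 50 mM Tris-HCl pH 7.4, 12.5 mM MgCl2, 1 mM EDTA, 0.2% BSA, incubated with compound and 2.5 nM [3H]Rauwolscine, 60 min, 25 °C.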
row,"Percentage inhibition of ligand binding, Adrenergic α2B (0.03 μM)",SMILES
1,27%,"CN1CCc2c(c3ccc(C(F)(F)F)cc3n2CC(O)c2cccnc2)C1 (single isomer, unassigned) [40a]"
2,29%,"CN1CCc2c(c3ccc(C(F)(F)F)cc3n2CC(O)c2cccnc2)C1 (single isomer, unassigned) [40b]"
3,14%,"CN1CCc2c(n(CC(O)c3ccncc3)c3ccc(Cl)cc23)C1 (single isomer, unassigned) [41a]"

# The next lines start with the compound.
row,SMILES,"Percentage inhibition of ligand binding, Adrenergic α2B (0.03 μM)"
1,"CN1CCc2c(c3cc(Cl)ccc3n2CC(C)(O)c2cccnc2)C1 (single isomer, unassigned) [31a]",93% and 97%
2,"CCC1c2c(c3cc(C)ccc3n2CC(O)c2ccncc2)C2CCN1C2 (single isomer, unassigned) [36a]",33%
3,"CCC1c2c(c3cc(C)ccc3n2CC(O)c2ccncc2)C2CCN1C2 (single isomer, unassigned) [36b]",−1%
4,"OC(Cn1c2c(c3cccnc31)CN1CCCC1C2)c1ccncc1 (single isomer, unassigned) [37a]",2%
5,"OC(Cn1c2c(c3cccnc31)CN1CCCC1C2)c1ccncc1 (single isomer, unassigned) [37b]",−3%
6,"OC(Cn1c2c(c3cccnc31)CN1CCCC1C2)c1ccncc1 (single isomer, unassigned) [37c]",0%
7,"OC(Cn1c2c(c3cccnc31)CN1CCCC1C2)c1ccncc1 (single isomer, unassigned) [37d]",−3%
8,"Cc1ccc2c(c1)c1c(n2CC(O)c2ccncc2)C(C)N2CCC1C2 (single isomer, unassigned) [38a]",35%
9,"Cc1ccc2c(c1)c1c(n2CC(O)c2ccncc2)C(C)N2CCC1C2 (single isomer, unassigned) [38b]",17%

# Biological target: T3, human recombinant adrenergic α2A receptor (Homo sapiens, UniProt P08913)
# T3 construct: expressed in transfected cells; host or cells: insect Sf9 cells
# T3 sequence (P08913 1-465): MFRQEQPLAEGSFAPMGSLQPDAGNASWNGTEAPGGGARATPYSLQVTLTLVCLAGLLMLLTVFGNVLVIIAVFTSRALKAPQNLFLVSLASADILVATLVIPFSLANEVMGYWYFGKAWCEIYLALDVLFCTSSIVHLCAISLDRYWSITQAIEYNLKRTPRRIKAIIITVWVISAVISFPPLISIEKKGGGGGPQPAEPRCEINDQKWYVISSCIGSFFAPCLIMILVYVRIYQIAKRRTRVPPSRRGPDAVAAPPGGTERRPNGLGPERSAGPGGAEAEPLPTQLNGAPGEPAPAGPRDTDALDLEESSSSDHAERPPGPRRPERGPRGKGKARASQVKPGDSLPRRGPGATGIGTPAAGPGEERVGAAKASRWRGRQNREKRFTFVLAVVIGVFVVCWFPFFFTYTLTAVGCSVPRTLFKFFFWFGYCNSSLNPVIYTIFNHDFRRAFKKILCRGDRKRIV
# Experiment: Radioligand binding, adrenergic α2A ([3H]MK-912)
# Settings: compound at 0.03 μM; [3H]MK-912; repeat datapoints each shown
# Procedure, shortened: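 Sf9 membranes, 1 nM [3H]MK-912, 60 min, 25 °C, Tris-HCl pH 7.4/MgCl2/EDTA buffer. NSB: 10 μM WB-4101. Filtration, counting; % inhibition of specific binding.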
row,"Percentage inhibition of ligand binding, Adrenergic α2A (0.03 μM) [%]",SMILES
1,11,"CN1CCc2c(c3cc(Cl)ccc3n2CC(C)(O)c2cccnc2)C1 (single isomer, unassigned) [31a]"

# Same assay, conditions: compound at 0.1 μM; [3H]MK-912; repeat datapoints each shown; 0.1 µM
row,"Percentage inhibition of ligand binding, Adrenergic α2A (0.1 μM)",SMILES
1,7%,"CN1CCc2c(c3ccc(C(F)(F)F)cc3n2CC(O)c2cccnc2)C1 (single isomer, unassigned) [40a]"
2,13%,"CN1CCc2c(c3ccc(C(F)(F)F)cc3n2CC(O)c2cccnc2)C1 (single isomer, unassigned) [40b]"
3,−9%,"CN1CCc2c(n(CC(O)c3ccncc3)c3ccc(Cl)cc23)C1 (single isomer, unassigned) [41a]"

# The remaining lines, values behind:
row,SMILES,"Percentage inhibition of ligand binding, Adrenergic α2A (0.1 μM)"
1,"CN1CCc2c(c3cc(Cl)ccc3n2CC(C)(O)c2cccnc2)C1 (single isomer, unassigned) [31a]",19% and 27%
2,"CCC1c2c(c3cc(C)ccc3n2CC(O)c2ccncc2)C2CCN1C2 (single isomer, unassigned) [36a]",8%
3,"CCC1c2c(c3cc(C)ccc3n2CC(O)c2ccncc2)C2CCN1C2 (single isomer, unassigned) [36b]",0%
4,"OC(Cn1c2c(c3cccnc31)CN1CCCC1C2)c1ccncc1 (single isomer, unassigned) [37a]",18%
5,"OC(Cn1c2c(c3cccnc31)CN1CCCC1C2)c1ccncc1 (single isomer, unassigned) [37b]",−20%
6,"OC(Cn1c2c(c3cccnc31)CN1CCCC1C2)c1ccncc1 (single isomer, unassigned) [37c]",6%
7,"OC(Cn1c2c(c3cccnc31)CN1CCCC1C2)c1ccncc1 (single isomer, unassigned) [37d]",8%
8,"Cc1ccc2c(c1)c1c(n2CC(O)c2ccncc2)C(C)N2CCC1C2 (single isomer, unassigned) [38a]",14%
9,"Cc1ccc2c(c1)c1c(n2CC(O)c2ccncc2)C(C)N2CCC1C2 (single isomer, unassigned) [38b]",−1%
